{
  "source": "patent US11684614B2",
  "about": "“Formulations of hydroxypyridonate actinide/lanthanide decorporation agents” (priority 2017, dated 2023)",
  "assay": "3,4,3-LI(1,2-HOPO)-excipient compatibility study (visual observation, HPLC purity and impurities on storage)",
  "type": "physicochemical",
  "conditions": "for 3L1O Purity / Total Impurities: n = 1",
  "method": "The objective of the analytical study described in this report was to evaluate the interactions between 3,4,3-L1(1,2-HOPO) and selected pharmaceutical excipients under 25° C./60% RH and 40° C./75% RH conditions over eight weeks. Physical appearance and potency of the different samples were assessed at T=0, 2, 4, and 8 weeks through visual observations and high performance liquid chromatography (HPLC) analysis.\nThe stability of 3,4,3-L1(1,2-HOPO) was tested according to the conditions listed below in TABLE 1.1. A11 test samples were stored throughout the study in 40 mL clear USP Type 1 glass vials (28 mm OD×95 mm height; 24 mm screw cap), wrapped in aluminum foil.\n• Test Samples: Each test mixture was prepared by weighing the desired quantity of 3,4,3-L1(1,2-HOPO) and excipient (both screened through sieve #40) into vials. Both ingredients were first mixed using a clean glass rod and then vortexed. At each time interval, one vial was withdrawn from each drug-excipient series along with the corresponding placebo preparation and tested as described below.\nb. Sample Characterization • Visual Observation: For each sample solution, visual observation consisted in recording color and physical form.\nc. Chromatographic Assay and Purity Assessment • Standard Stock Solutions: For each standard stock solutions, the test article was weighed (200 mg) and dissolved by sonication into 30 mL of diluent (water:acetonitrile=90%:10%). After equilibration at room temperature, the volume of the standard solution was adjusted to 50 mL. Standard stock solutions were prepared in duplicates, working standard solutions were prepared by dilution of each stock with the diluent to the desired concentrations. • Calibration Standards: With each experiment, 5 calibration standard solutions at different concentrations were prepared from stock solutions using the diluent. Concentrations of the calibration standards were between 1.6 and 2.4 mg/mL. […] The vials were then mechanically shaken for 15 minutes, followed by centrifugation of the sample solutions (10,000 rpm, 10 min), and the supernatants were used for the assay. • Placebo Preparation: 25 mL of diluent was added to each of the placebo vial. The vials were then mechanically shaken for 15 minutes, followed by centrifugation of the sample solutions (10,000 rpm, 10 min), and the supernatants were used for the assay. Analytical Method: Instrument: Waters Alliance 2695 liquid chromatography system Column: Agilent, Eclipse XDB-C18, 4.6×150 mm, 5 μm. Mobile Phase A: 0.05% formic acid in 95% H2O: 5% ACN Mobile Phase B: 0.05% formic acid in acetonitrile (ACN)\nColumn Temperature: 25° C. Flow Rate: 1.0 mL/min. Injection Volume: 10 μL Detection: 250 nm Run Time: 50 min Diluent: 9:1 H2O:ACN Analysis Sequence:\n• Suitability Requirements: There should be no interference from the diluent/blank at the retention times of 3,4,3-L1(1,2-HOPO) peaks. The relative standard deviation (% RSD) for five replicate system suitability injections should be below 2.0%. The response factor of the second standard should be within 95-105%. The correlation coefficient (R2) of the system linearity standards should be higher than 0.990. 5. Results",
  "data": [
    {"smiles": "O=C(NCCCN(CCCCN(CCCNC(=O)c1cccc(=O)n1O)C(=O)c1cccc(=O)n1O)C(=O)c1cccc(=O)n1O)c1cccc(=O)n1O", "note": "[3,4,3-L1(1,2-HOPO)]", "values": [
      {"measurement": "Unknown Impurity RRT 1.27", "setting": "40° C./75% RH, 2 Weeks", "value": 0.36, "unit": "% w/w"},
      {"measurement": "Unknown Impurity RRT 1.3", "setting": "40° C./75% RH, 2 Weeks", "value": 0.16, "unit": "% w/w"},
      {"measurement": "Unknown Impurity RRT 1.39", "setting": "40° C./75% RH, 2 Weeks", "value": 0.05, "unit": "% w/w"},
      {"measurement": "Unknown Impurity RRT 1.41", "setting": "40° C./75% RH, 2 Weeks", "value": 0.01, "unit": "% w/w"},
      {"measurement": "Unknown Impurity RRT 1.46", "setting": "40° C./75% RH, 2 Weeks", "value": 0.07, "unit": "% w/w"},
      {"measurement": "Unknown Impurity RRT 2.31", "setting": "40° C./75% RH, 2 Weeks", "value": 0.05, "unit": "% w/w"},
      {"measurement": "Unknown Impurity RRT 2.59", "setting": "40° C./75% RH, 2 Weeks", "value": 0.04, "unit": "% w/w"},
      {"measurement": "Unknown Impurity RRT 2.8", "setting": "40° C./75% RH, 2 Weeks", "value": 0.03, "unit": "% w/w"},
      {"measurement": "3L1O Purity", "setting": "40° C./75% RH, 2 Weeks", "value": 98.62, "unit": "% Area"},
      {"measurement": "Total Impurities", "setting": "40° C./75% RH, 2 Weeks", "value": 1.38, "unit": "% Area"},
      {"measurement": "Unknown Impurity RRT 0.24", "setting": "40° C./75% RH, 4 weeks", "value": 0.05, "unit": "% w/w"},
      {"measurement": "Unknown Impurity RRT 0.58", "setting": "40° C./75% RH, 4 weeks", "value": 0.09, "unit": "% w/w"},
      {"measurement": "Unknown Impurity RRT 0.6", "setting": "40° C./75% RH, 4 weeks", "value": 0.06, "unit": "% w/w"},
      {"measurement": "Unknown Impurity RRT 0.62", "setting": "40° C./75% RH, 4 weeks", "value": 0.07, "unit": "% w/w"},
      {"measurement": "Unknown Impurity RRT 0.81", "setting": "40° C./75% RH, 4 weeks", "value": 0.02, "unit": "% w/w"},
      {"measurement": "Unknown Impurity RRT 0.87", "setting": "40° C./75% RH, 4 weeks", "value": 0.16, "unit": "% w/w"},
      {"measurement": "Unknown Impurity RRT 0.89", "setting": "40° C./75% RH, 4 weeks", "value": 0.03, "unit": "% w/w"},
      {"measurement": "Unknown Impurity RRT 1.02", "setting": "40° C./75% RH, 4 weeks", "value": 0.03, "unit": "% w/w"},
      {"measurement": "Unknown Impurity RRT 1.11", "setting": "40° C./75% RH, 4 weeks", "value": 0.06, "unit": "% w/w"},
      {"measurement": "Unknown Impurity RRT 1.27", "setting": "40° C./75% RH, 4 weeks", "value": 0.26, "unit": "% w/w"},
      {"measurement": "Unknown Impurity RRT 1.3", "setting": "40° C./75% RH, 4 weeks", "value": 0.2, "unit": "% w/w"},
      {"measurement": "Unknown Impurity RRT 1.39", "setting": "40° C./75% RH, 4 weeks", "value": 0.74, "unit": "% w/w"},
      {"measurement": "Unknown Impurity RRT 1.41", "setting": "40° C./75% RH, 4 weeks", "value": 0.01, "unit": "% w/w"},
      {"measurement": "Unknown Impurity RRT 1.46", "setting": "40° C./75% RH, 4 weeks", "value": 0.08, "unit": "% w/w"},
      {"measurement": "Unknown Impurity RRT 1.72", "setting": "40° C./75% RH, 4 weeks", "value": 0.09, "unit": "% w/w"},
      {"measurement": "Unknown Impurity RRT 2.3", "setting": "40° C./75% RH, 4 weeks", "value": 0.04, "unit": "% w/w"},
      {"measurement": "Unknown Impurity RRT 2.59", "setting": "40° C./75% RH, 4 weeks", "value": 0.03, "unit": "% w/w"},
      {"measurement": "Unknown Impurity RRT 2.79", "setting": "40° C./75% RH, 4 weeks", "value": 0.02, "unit": "% w/w"},
      {"measurement": "3L1O Purity", "setting": "40° C./75% RH, 4 weeks", "value": 98.63, "unit": "% Area"},
      {"measurement": "Total Impurities", "setting": "40° C./75% RH, 4 weeks", "value": 1.37, "unit": "% Area"},
      {"measurement": "Unknown Impurity RRT 0.24", "setting": "40° C./75% RH, 8 Weeks", "value": 0.34, "unit": "% w/w"},
      {"measurement": "Unknown Impurity RRT 0.58", "setting": "40° C./75% RH, 8 Weeks", "value": 0.2, "unit": "% w/w"},
      {"measurement": "Unknown Impurity RRT 0.59", "setting": "40° C./75% RH, 8 Weeks", "value": 0.16, "unit": "% w/w"},
      {"measurement": "Unknown Impurity RRT 0.62", "setting": "40° C./75% RH, 8 Weeks", "value": 0.18, "unit": "% w/w"},
      {"measurement": "Unknown Impurity RRT 0.81", "setting": "40° C./75% RH, 8 Weeks", "value": 0.05, "unit": "% w/w"},
      {"measurement": "Unknown Impurity RRT 0.87", "setting": "40° C./75% RH, 8 Weeks", "value": 0.18, "unit": "% w/w"},
      {"measurement": "Unknown Impurity RRT 0.89", "setting": "40° C./75% RH, 8 Weeks", "value": 0.32, "unit": "% w/w"},
      {"measurement": "Unknown Impurity RRT 0.91", "setting": "40° C./75% RH, 8 Weeks", "value": 0.11, "unit": "% w/w"},
      {"measurement": "Unknown Impurity RRT 0.95", "setting": "40° C./75% RH, 8 Weeks", "value": 0.04, "unit": "% w/w"},
      {"measurement": "Unknown Impurity RRT 1.02", "setting": "40° C./75% RH, 8 Weeks", "value": 0.09, "unit": "% w/w"},
      {"measurement": "Unknown Impurity RRT 1.12", "setting": "40° C./75% RH, 8 Weeks", "value": 0.05, "unit": "% w/w"},
      {"measurement": "Unknown Impurity RRT 1.27", "setting": "40° C./75% RH, 8 Weeks", "value": 0.4, "unit": "% w/w"},
      {"measurement": "Unknown Impurity RRT 1.31", "setting": "40° C./75% RH, 8 Weeks", "value": 0.01, "unit": "% w/w"},
      {"measurement": "Unknown Impurity RRT 1.39", "setting": "40° C./75% RH, 8 Weeks", "value": 0.08, "unit": "% w/w"},
      {"measurement": "Unknown Impurity RRT 1.41", "setting": "40° C./75% RH, 8 Weeks", "value": 0, "unit": "% w/w"},
      {"measurement": "Unknown Impurity RRT 1.46", "setting": "40° C./75% RH, 8 Weeks", "value": 0.12, "unit": "% w/w"},
      {"measurement": "Unknown Impurity RRT 1.72", "setting": "40° C./75% RH, 8 Weeks", "value": 0.1, "unit": "% w/w"},
      {"measurement": "Unknown Impurity RRT 2.31", "setting": "40° C./75% RH, 8 Weeks", "value": 0.03, "unit": "% w/w"},
      {"measurement": "Unknown Impurity RRT 2.6", "setting": "40° C./75% RH, 8 Weeks", "value": 0.02, "unit": "% w/w"},
      {"measurement": "Unknown Impurity RRT 2.8", "setting": "40° C./75% RH, 8 Weeks", "value": 0.02, "unit": "% w/w"},
      {"measurement": "3L1O Purity", "setting": "40° C./75% RH, 8 Weeks", "value": 97.49, "unit": "% Area"},
      {"measurement": "Total Impurities", "setting": "40° C./75% RH, 8 Weeks", "value": 2.51, "unit": "% Area"},
      {"measurement": "Unknown Impurity RRT 0.58", "setting": "Initial (T = 0)", "value": 0.05, "unit": "% w/w"},
      {"measurement": "Unknown Impurity RRT 0.59", "setting": "Initial (T = 0)", "value": 0.04, "unit": "% w/w"},
      {"measurement": "Unknown Impurity RRT 0.62", "setting": "Initial (T = 0)", "value": 0.04, "unit": "% w/w"},
      {"measurement": "Unknown Impurity RRT 0.87", "setting": "Initial (T = 0)", "value": 0.1, "unit": "% w/w"},
      {"measurement": "Unknown Impurity RRT 0.89", "setting": "Initial (T = 0)", "value": 0.02, "unit": "% w/w"},
      {"measurement": "Unknown Impurity RRT 1.03", "setting": "Initial (T = 0)", "value": 0.21, "unit": "% w/w"},
      {"measurement": "Unknown Impurity RRT 1.11", "setting": "Initial (T = 0)", "value": 0.04, "unit": "% w/w"},
      {"measurement": "Unknown Impurity RRT 1.27", "setting": "Initial (T = 0)", "value": 0.29, "unit": "% w/w"},
      {"measurement": "Unknown Impurity RRT 1.3", "setting": "Initial (T = 0)", "value": 0.21, "unit": "% w/w"},
      {"measurement": "Unknown Impurity RRT 1.39", "setting": "Initial (T = 0)", "value": 0.09, "unit": "% w/w"},
      {"measurement": "Unknown Impurity RRT 1.41", "setting": "Initial (T = 0)", "value": 0.01, "unit": "% w/w"},
      {"measurement": "Unknown Impurity RRT 1.46", "setting": "Initial (T = 0)", "value": 0.11, "unit": "% w/w"},
      {"measurement": "Unknown Impurity RRT 2.31", "setting": "Initial (T = 0)", "value": 0.05, "unit": "% w/w"},
      {"measurement": "3L1O Purity", "setting": "Initial (T = 0)", "value": 98.73, "unit": "% Area"},
      {"measurement": "Total Impurities", "setting": "Initial (T = 0)", "value": 1.27, "unit": "% Area"}
    ]}
  ]
}
